# From patent publication US11040952B2, “Phthalazinone compound, method for preparation thereof, pharmaceutical composition thereof, and use thereof” (SHANGHAI INSTITUTE OF MATERIA MEDICA, CHINESE ACADEMY OF …, priority 2017, dated 2021)
# Legend:
# [1] = MTT assay for cytotoxicity; format: cell-based, Human; details: human, HepG2.2.15 cells, half (50%) lethal concentration
# Method: (§1) Human hepatoblastoma cell line HepG2.2.15 stably transfected with full-length HBV (provided by Shanghai Institute of Materia Medica, Chinese Academy of Sciences)
# (§2) HepG2.2.15 cells were cultured and passaged according to conventional methods. DMEM containing 10% (v/v) bovine serum and the selective antibiotic G418 was used as a medium, the cells were cultured in an incubator at 37° C. under 5% CO2 for 8 days (the medium was exchanged on the 4th day).
# (§3) The test compounds were formulated with DMSO into a 40 mM stock solution, which was then prepared into a solution at the defined highest concentration using a DMEM medium containing 10% Hyclone™ Fetal Bovine Serum, followed by diluting the same; the positive drug was lamivudine, which was also prepared into a solution at the defined concentration with the DMEM medium containing 10% Hyclone™ Fetal Bovine Serum.
# HepG2.2.15 cells were seeded at 5×10^3 cells/well in a 96-well plate, and cultured for eight days in the presence of the compounds according to the above method, and then 200 μl of the supernatant was taken out, followed by addition of the MTT solution. After 4 hours of culture, a lysate was added. After 12 hours of culture, the OD570 was measured on a microplate reader. By comparing with the absorbance of the control well, the percentage of viable cells was calculated, and CC50, the concentration required for the reduction of cell viability by 50%, was calculated.
# HBV = HBV DNA content in the supernatant of cell culture (real-time PCR); format: cell-based, hepatitis B virus (HBV); details: Hepatitis B virus, HepG2.2.15, 192 h, inhibition of HBV DNA replication, HepG2.2.15 supernatant, 8 days
# Method: as §1, §2, §3
# HepG2.2.15 cells were treated with compounds at different concentrations for 8 days (the medium was exchanged on the 4th day), and the supernatant was aspirated, and the HBV DNA contained in the mature virus particles in the supernatant was quantitated by using a real-time PCR method.
# 1) The supernatant DNA from a 96-well plate, 200 μl/well, was collected, wherein the contents in the duplicate wells were collected into a same EP tube, and centrifuged at 4000 rcf for 5 min, and the supernatant was collected;
# 2) 200 μl of the supernatant was added into a 1.5 ml EP tube, added with 20 μl of proteinase K and 200 μl of Buffer AL (Qiagen, DNeasy® Blood & Tissue Kit), vortexed to be mixed thoroughly, and incubated at 56° C. for 10 min;
# 3) 200 μl of ethanol was added and vortexed to be mixed thoroughly;
# 4) all the liquid obtained from step 3) was added into a DNeasy Mini spin column (Qiagen, DNeasy® Blood & Tissue Kit) placed in a 2 ml waste liquid collection tube, and centrifuged at 6000 rcf for 1 min, and the supernatant was discarded;
# 5) the DNeasy Mini spin column was placed in a new 2 ml waste liquid collection tube, added with 500 μl of Buffer AW1 (Qiagen, DNeasy® Blood & Tissue Kit), and centrifuged at 6000 rcf for 1 min, and the supernatant was discarded;
# 6) the DNeasy Mini spin column was placed in a new 2 ml waste liquid collection tube, added with 500 μl of Buffer AW2, (Qiagen, DNeasy® Blood & Tissue Kit), and centrifuged at 20000 rcf for 3 min, and the supernatant was discarded;
# 7) the DNeasy Mini spin column was placed in anew 1.5 ml EP tube, 50 μl of Buffer AE (Qiagen, DNeasy® Blood & Tissue Kit) was pipetted and directly applied onto the membrane of the DNeasy Mini spin column, which was then left at room temperature for 5 min, and centrifuged at 6000 rcf for 1 min to elute the DNA from the membrane, the DNeasy Mini spin column was discarded, and the DNA sample was collected and stored at −20° C.
# 1) Standard curve: 1e^7-1e^4 IU/ml, the sample amount was 1 μl, a blank well was set so as to check whether the reaction system is polluted or not;
# 2) 1 μl of a DNA sample was added in sequence;
# 3) Addition of enzyme and reaction buffer: two tubes of the reaction solution were first added into the enzyme, mixed well and centrifuged slightly, placed on ice, added with the sample, followed by addition of 19 μl of the enzyme reaction solution, wherein, during the addition, the DNA sample should be sure of not being touched to cause contamination;
# 4) the sample was sealed with a sealing film and centrifuged;
# Stage 2: 10 cycles • Step 1: 93° C., 45 s • Step 2: 55° C., 1 min Stage 3: 45 cycles • Step 1: 93° C., 30 s • Step 2: 55° C., 45 s
# Detection: data were collected after completing the step 2 (55° C., 45 s) of the stage 3.
# The experimental data were processed by using the Origin software and IC50 was calculated.
Compound,CC50 at 8 days [1],IC50 (HBV)
O=c1c2ccccc2c(-c2ccc(N3CCC3)nc2F)nn1Cc1ccc(Cl)cc1 [Compound I-18],42900 nM,1200 nM
O=c1c2ccccc2c(-c2c(F)cc(F)nc2F)nn1Cc1ccc(Cl)cc1 [Compound I-23],> 100000 nM,600 nM
N#Cc1ccc(Cn2nc(-c3ccc(N)nc3C#N)c3ccccc3c2=O)cc1 [IV-7],> 100000 nM,800 nM
[2H]C([2H])(OC)c1ccc(-c2nn(Cc3ccc(Cl)cc3)c(=O)c3ccccc23)c(F)n1 [Compound I-35],> 100000 nM,300 nM
CN(C)CCCCNc1ccc(-c2nn(Cc3ccc(C#N)cc3)c(=O)c3ccccc23)c(F)n1 [IV-40],18600 nM,660 nM
N#Cc1ccc(Cn2nc(-c3cc(O)cnc3F)c3ccccc3c2=O)cc1 [Compound I-43],> 100000 nM,1570 nM
CN(C)c1ccc(-c2nn(Cc3ccc(Cl)cc3)c(=O)c3ccccc23)c(F)n1 [Compound I-13],32700 nM,1200 nM
CN(C)CCNc1ccc(-c2nn(Cc3ccc(Cl)cc3)c(=O)c3ccccc23)c(F)n1 [Compound I-21],> 100000 nM,1600 nM
CN(C)Cc1ccc(-c2nn(Cc3ccc(Cl)cc3)c(=O)c3ccccc23)c(F)n1 [Compound I-33],> 100000 nM,1300 nM
CN(C)CCCNc1ccc(-c2nn(Cc3ccc(C#N)cc3)c(=O)c3ccccc23)c(F)n1 [IV-39],18400 nM,684 nM
N#Cc1ccc(Cn2nc(-c3cc(Cl)cnc3F)c3ccccc3c2=O)c(Cl)c1 [Compound I-41],46600 nM,108 nM
CN(C)Cc1ccc(-c2nn(Cc3ccc(C#N)cc3)c(=O)c3ccccc23)c(F)n1 [IV-21],> 100000 nM,1300 nM
COC(=O)CCNc1ccc(-c2nn(Cc3ccc(C#N)cc3)c(=O)c3ccccc23)c(F)n1 [IV-72],> 100000 nM,1720 nM
N#Cc1ccc(Cn2nc(-c3cc(Cl)c(NCCC(=O)O)nc3F)c3ccccc3c2=O)cc1 [IV-63],> 100000 nM,262 nM
COCCOc1ccc(-c2nn(Cc3ccc(C#N)cc3)c(=O)c3ccccc23)c(F)n1 [IV-31],109000 nM,452 nM
CCOCCOCCNc1ccc(-c2nn(Cc3ccc(C#N)cc3)c(=O)c3ccccc23)c(F)n1 [IV-56],> 100000 nM,214 nM
Cc1ccc(-c2nn(Cc3ccc(C#N)cc3)c(=O)c3cc(F)c(F)cc23)c(F)n1 [Compound V-10],47900 nM,700 nM
CN(C)CCNc1nc(F)c(-c2nn(Cc3ccc(C#N)cc3)c(=O)c3ccccc23)cc1Cl [IV-38],9760 nM,343 nM
N#Cc1ccc(Cn2nc(-c3ccc(NCC4CCOCC4)nc3F)c3ccccc3c2=O)cc1 [IV-25],54100 nM,1200 nM
COC(=O)CCCNc1ccc(-c2nn(Cc3ccc(C#N)cc3)c(=O)c3ccccc23)c(F)n1 [IV-64],> 100000 nM,1220 nM
N#Cc1ncc(-c2nn(Cc3ccc(Cl)cc3)c(=O)c3ccccc23)cn1 [II-2],32400 nM,4500 nM
COCc1ccc(-c2nn(Cc3ccc(C#N)cc3)c(=O)c3ccccc23)c(F)n1 [IV-22],> 100000 nM,3500 nM
O=c1c2ccccc2c(-c2ccc(C3CC3)nc2F)nn1Cc1ccc(Cl)cc1 [Compound I-31],> 100000 nM,600 nM
COc1cc2c(-c3ccc(C)nc3F)nn(Cc3ccc(C#N)cc3)c(=O)c2cc1OC [Compound V-12],> 100000 nM,4500 nM

Compound,CC50 at 8 days [1],IC50 (HBV)
CCOCCNc1nc(F)c(-c2nn(Cc3ccc(C#N)cc3)c(=O)c3ccccc23)cc1Cl [IV-42],29800 nM,292 nM
COCCOCCOCCNc1ccc(-c2nn(Cc3ccc(C#N)cc3)c(=O)c3ccccc23)c(F)n1 [IV-49],93600 nM,166 nM
Cc1ccc(-c2nn(Cc3ccc(Cl)cc3)c(=O)c3cc(C)c(C)cc23)c(F)n1 [Compound V-4],> 100000 nM,1300 nM
O=c1c2ccccc2c(-c2ccc(NC3COC3)nc2F)nn1Cc1ccc(Cl)cc1 [Compound I-17],> 100000 nM,1600 nM
[2H]C([2H])(c1ccc(Cl)cc1)n1nc(-c2ccc(C)nc2F)c2ccccc2c1=O [Compound I-25],> 100000 nM,1300 nM
Nc1ccc(-c2nn(Cc3ccc(Cl)cc3)c(=O)c3ccccc23)cn1 [Compound I-5],51800 nM,1500 nM
[2H]C([2H])([2H])OC([2H])([2H])c1ccc(-c2nn(Cc3ccc(Cl)cc3)c(=O)c3ccccc23)c(F)n1 [Compound I-36],89000 nM,1500 nM
CC(C)(C)Nc1ccc(-c2nn(Cc3ccc(C#N)cc3)c(=O)c3ccccc23)c(F)n1 [IV-12],46300 nM,3700 nM
COC(=O)CCNc1nc(F)c(-c2nn(Cc3ccc(C#N)cc3)c(=O)c3ccccc23)cc1Cl [IV-73],> 100000 nM,215 nM
N#Cc1ccc(Cn2nc(-c3ccc(NCCC(F)(F)F)nc3F)c3ccccc3c2=O)cc1 [IV-83],> 100000 nM,413 nM
CCOCCNc1ccc(-c2nn(Cc3ccc(C#N)cc3)c(=O)c3ccccc23)c(F)n1 [IV-41],> 100000 nM,325 nM
N#Cc1ccc(Cn2nc(-c3cc(Cl)c(NCCC(F)(F)F)nc3F)c3ccccc3c2=O)cc1 [IV-84],63500 nM,< 98 nM
N#Cc1ccc(Cn2nc(-c3ccc(NCCCO)nc3F)c3ccccc3c2=O)cc1 [IV-66],94000 nM,180 nM
Cc1ccc(-c2nn(Cc3ccc(Cl)cc3)c(=O)c3ccc(F)cc23)c(F)n1 [Compound V-1],> 100000 nM,700 nM
N#Cc1ccc(Cn2nc(-c3cc(Cl)c(NCCO)nc3F)c3ccccc3c2=O)cc1 [IV-77],32100 nM,27.7 nM
CNc1ccc(-c2nn(Cc3ccc(C#N)cc3)c(=O)c3ccccc23)c(F)n1 [IV-8],> 100000 nM,900 nM
N#Cc1ccc(Cn2nc(-c3ccc(C4CC4)nc3F)c3ccccc3c2=O)cc1 [IV-19],> 100000 nM,270 nM
CC(=O)OCc1ccc(-c2nn(Cc3ccc(C#N)cc3)c(=O)c3ccccc23)c(F)n1 [IV-23],> 100000 nM,4500 nM
CC(C)(C)OC(=O)NCCCCNc1nc(F)c(-c2nn(Cc3ccc(C#N)cc3)c(=O)c3ccccc23)cc1Cl [IV-46],> 100000 nM,14 nM
Cc1ccc(-c2nn(Cc3ccc(Cl)cc3)c(=O)c3ccc(C#N)cc23)c(F)n1 [Compound V-7],> 100000 nM,900 nM
O=c1c2ccccc2c(-c2ccc(C(F)(F)F)nc2F)nn1Cc1ccc(Cl)cc1 [Compound I-19],77500 nM,200 nM
N#Cc1ccc(Cn2nc(-c3ccc(NCCCCO)nc3F)c3ccccc3c2=O)cc1 [IV-68],> 100000 nM,332 nM
CC(=O)Nc1ccc(-c2nn(Cc3ccc(C#N)cc3)c(=O)c3ccccc23)c(F)n1 [IV-10],47900 nM,1700 nM
CC(C)(C)OC(=O)CCNc1ccc(-c2nn(Cc3ccc(C#N)cc3)c(=O)c3ccccc23)c(F)n1 [IV-61],195000 nM,465 nM
